Laboratory results reported in PubChem BioAssay (NCI).
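Each compound was tested at five concentrations against cells in 96-well plates for 48 hours. Abbreviation: GI50, concentration required for 50% inhibition of growth. TGI: total growth inhibition.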

How the values were obtained:
Assay in all cases: NCI-60 cell line screen, 48 h; in the data active = GI50 below about 0.43 µM; inactive = the rest
HCT-15 colon = test system: HCT-15 colon
NCI-H460 lung = test system: NCI-H460 lung
TK-10 renal = test system: TK-10 renal
NCI-H522 lung = test system: NCI-H522 lung
SK-MEL-28 melanoma = test system: SK-MEL-28 melanoma
HL-60(TB) leukemia = test system: HL-60(TB) leukemia
U251 CNS = test system: U251 CNS
NCI-H226 lung = test system: NCI-H226 lung
SF-539 CNS = test system: SF-539 CNS
A498 renal = test system: A498 renal
UACC-257 melanoma = test system: UACC-257 melanoma
HS 578T breast = test system: HS 578T breast
PC-3 prostate = test system: PC-3 prostate
SK-MEL-5 melanoma = test system: SK-MEL-5 melanoma
COLO 205 colon = test system: COLO 205 colon
SK-MEL-2 melanoma = test system: SK-MEL-2 melanoma
SN12C renal = test system: SN12C renal
RXF 393 renal = test system: RXF 393 renal
HT29 colon = test system: HT29 colon
HOP-92 NSCLC = test system: HOP-92 NSCLC
SF-295 CNS = test system: SF-295 CNS
SW-620 colon = test system: SW-620 colon
MALME-3M melanoma = test system: MALME-3M melanoma
IGROV1 ovarian = test system: IGROV1 ovarian
SNB-19 CNS = test system: SNB-19 CNS
KM12 colon = test system: KM12 colon
MDA-MB-435 = test system: MDA-MB-435
HOP-62 NSCLC = test system: HOP-62 NSCLC
MDA-MB-231 breast = test system: MDA-MB-231 breast
UACC-62 melanoma = test system: UACC-62 melanoma
OVCAR-8 ovarian = test system: OVCAR-8 ovarian
MOLT-4 leukemia = test system: MOLT-4 leukemia
ACHN renal = test system: ACHN renal
T-47D breast = test system: T-47D breast
SK-OV-3 ovarian = test system: SK-OV-3 ovarian
BT-549 breast = test system: BT-549 breast
OVCAR-3 ovarian = test system: OVCAR-3 ovarian
OVCAR-4 ovarian = test system: OVCAR-4 ovarian
HCC-2998 colon = test system: HCC-2998 colon
NCI/ADR-RES ovarian = test system: NCI/ADR-RES ovarian
786-0 renal = test system: 786-0 renal
MCF7 breast = test system: MCF7 breast
LOX IMVI melanoma = test system: LOX IMVI melanoma
OVCAR-5 ovarian = test system: OVCAR-5 ovarian
SNB-75 CNS = test system: SNB-75 CNS
DU-145 prostate = test system: DU-145 prostate
HCT-116 colon = test system: HCT-116 colon
A549 NSCLC = test system: A549 NSCLC
CCRF-CEM leukemia = test system: CCRF-CEM leukemia
CAKI-1 renal = test system: CAKI-1 renal
SF-268 CNS = test system: SF-268 CNS
RPMI-8226 leukemia = test system: RPMI-8226 leukemia
K-562 leukemia = test system: K-562 leukemia
EKVX NSCLC = test system: EKVX NSCLC
NCI-H23 lung = test system: NCI-H23 lung
M14 melanoma = test system: M14 melanoma
SR leukemia = test system: SR leukemia
UO-31 renal = test system: UO-31 renal

Nc1ncnc2c1ncn2Cc1ccc(C23CC4CC(CC(C4)C2)C3)c(OCc2cc(F)c(F)cc2F)c1
> 100 µM: TGI (HCT-15 colon) | TGI (NCI-H460 lung) | TGI (TK-10 renal) | TGI (NCI-H522 lung) | TGI (SK-MEL-28 melanoma) | TGI (NCI-H226 lung) | TGI (SF-539 CNS) | TGI (A498 renal) | TGI (HS 578T breast) | TGI (SK-MEL-5 melanoma) | TGI (COLO 205 colon) | TGI (SK-MEL-2 melanoma) | TGI (HT29 colon) | TGI (SF-295 CNS) | TGI (SW-620 colon) | TGI (MALME-3M melanoma) | TGI (IGROV1 ovarian) | TGI (SNB-19 CNS) | TGI (KM12 colon) | TGI (MDA-MB-435) | TGI (MDA-MB-231 breast) | TGI (UACC-62 melanoma) | TGI (OVCAR-8 ovarian) | TGI (ACHN renal) | TGI (T-47D breast) | TGI (SK-OV-3 ovarian) | TGI (BT-549 breast) | TGI (OVCAR-3 ovarian) | TGI (OVCAR-4 ovarian) | TGI (NCI/ADR-RES ovarian) | TGI (786-0 renal) | TGI (LOX IMVI melanoma) | TGI (OVCAR-5 ovarian) | TGI (SNB-75 CNS) | TGI (DU-145 prostate) | TGI (SF-268 CNS)
7.4 µM: TGI (UACC-257 melanoma)
18.9 µM: TGI (HOP-62 NSCLC)
10.7 µM: TGI (HL-60(TB) leukemia)
32.7 µM: TGI (HOP-92 NSCLC)
57.8 µM: TGI (HCC-2998 colon)
inactive: GI50 (HCT-15 colon) 4.92 µM | GI50 (NCI-H460 lung) 4.33 µM | GI50 (TK-10 renal) 4.37 µM | GI50 (NCI-H522 lung) 7.86 µM | GI50 (SK-MEL-28 melanoma) > 100 µM | GI50 (HL-60(TB) leukemia) 3.06 µM | GI50 (U251 CNS) 5.59 µM | GI50 (NCI-H226 lung) > 100 µM | GI50 (SF-539 CNS) 50.2 µM | GI50 (A498 renal) > 100 µM | GI50 (UACC-257 melanoma) 2.33 µM | GI50 (HS 578T breast) 52 µM | GI50 (PC-3 prostate) 2.17 µM | GI50 (SK-MEL-5 melanoma) 0.955 µM | GI50 (COLO 205 colon) 14.4 µM | GI50 (SK-MEL-2 melanoma) > 100 µM | GI50 (SN12C renal) 11.7 µM | GI50 (RXF 393 renal) 2.02 µM | GI50 (HT29 colon) 12 µM | GI50 (HOP-92 NSCLC) 4.63 µM | GI50 (SF-295 CNS) 6.29 µM | GI50 (SW-620 colon) 7.25 µM | GI50 (MALME-3M melanoma) 4.59 µM | GI50 (IGROV1 ovarian) 7.54 µM | GI50 (SNB-19 CNS) 29.5 µM | GI50 (KM12 colon) 3.92 µM | GI50 (MDA-MB-435) 5.22 µM | GI50 (HOP-62 NSCLC) 6.98 µM | GI50 (MDA-MB-231 breast) 6.39 µM | GI50 (UACC-62 melanoma) 4.75 µM | GI50 (OVCAR-8 ovarian) 9.66 µM | GI50 (MOLT-4 leukemia) 2.69 µM | GI50 (ACHN renal) 5.74 µM | GI50 (T-47D breast) > 100 µM | GI50 (SK-OV-3 ovarian) 87.7 µM | GI50 (BT-549 breast) > 100 µM | GI50 (OVCAR-3 ovarian) 3.27 µM | GI50 (OVCAR-4 ovarian) 90.8 µM | GI50 (HCC-2998 colon) 6.26 µM | GI50 (NCI/ADR-RES ovarian) 6.49 µM | GI50 (786-0 renal) 17.5 µM | GI50 (MCF7 breast) 6.37 µM | GI50 (LOX IMVI melanoma) 5.36 µM | GI50 (OVCAR-5 ovarian) 68.6 µM | GI50 (SNB-75 CNS) > 100 µM | GI50 (DU-145 prostate) 15.3 µM | GI50 (HCT-116 colon) 3.08 µM | GI50 (A549 NSCLC) 3.61 µM | GI50 (CCRF-CEM leukemia) 2.4 µM | GI50 (CAKI-1 renal) 2.32 µM | GI50 (SF-268 CNS) 8.57 µM
13.2 µM: TGI (HCT-116 colon)
6.84 µM: TGI (CCRF-CEM leukemia)
42.8 µM: TGI (U251 CNS)
30.2 µM: TGI (MCF7 breast)
10.9 µM: TGI (PC-3 prostate)
7.97 µM: TGI (MOLT-4 leukemia)
8.36 µM: TGI (RXF 393 renal)
67.5 µM: TGI (SN12C renal)
14.7 µM: TGI (A549 NSCLC)
6.9 µM: TGI (CAKI-1 renal)

c1ccc2c(c1)sc1c3cnccc3ccc21
> 100 µM: TGI (HCT-15 colon) | TGI (NCI-H460 lung) | TGI (TK-10 renal) | TGI (NCI-H522 lung) | TGI (SK-MEL-28 melanoma) | TGI (HL-60(TB) leukemia) | TGI (U251 CNS) | TGI (NCI-H226 lung) | TGI (SF-539 CNS) | TGI (A498 renal) | TGI (UACC-257 melanoma) | TGI (HS 578T breast) | TGI (SK-MEL-5 melanoma) | TGI (COLO 205 colon) | TGI (SK-MEL-2 melanoma) | TGI (SN12C renal) | TGI (HT29 colon) | TGI (SF-295 CNS) | TGI (SW-620 colon) | TGI (RPMI-8226 leukemia) | TGI (K-562 leukemia) | TGI (MALME-3M melanoma) | TGI (IGROV1 ovarian) | TGI (SNB-19 CNS) | TGI (KM12 colon) | TGI (MDA-MB-435) | TGI (HOP-62 NSCLC) | TGI (MDA-MB-231 breast) | TGI (UACC-62 melanoma) | TGI (MOLT-4 leukemia) | TGI (EKVX NSCLC) | TGI (NCI-H23 lung) | TGI (M14 melanoma) | TGI (ACHN renal) | TGI (T-47D breast) | TGI (SK-OV-3 ovarian) | TGI (BT-549 breast) | TGI (OVCAR-3 ovarian) | TGI (OVCAR-4 ovarian) | TGI (HCC-2998 colon) | TGI (NCI/ADR-RES ovarian) | TGI (786-0 renal) | TGI (MCF7 breast) | TGI (LOX IMVI melanoma) | TGI (OVCAR-5 ovarian) | TGI (SNB-75 CNS) | TGI (SR leukemia) | TGI (UO-31 renal) | TGI (DU-145 prostate) | TGI (HCT-116 colon) | TGI (A549 NSCLC) | TGI (CAKI-1 renal) | TGI (SF-268 CNS)
